Reference: patent US12612389B2, “Benzofuran-based N-acylhydrazone derivative and pharmaceutical composition comprising same” (KOREA RESEARCH INSTITUTE OF BIOSCIENCE AND BIOTECHNOLOGY, priority 2019, dated 2026)
Where two headings read alike, the source gives them in different places.

Assays:
[1] = Metabolic stability test in liver microsomes; format: in vitro ADME; conditions: 0.5 mg protein/mL, 37° C.
Protocol: (§1) The test compounds at a concentration of […] were administered in the presence or absence of NADPH (1 mM) to liver […] (0.5 mg protein/mL) of humans, rats and mice, and metabolic stability was tested at 37° C. for 30 minutes. In addition, buspirone was used as a positive control. Results thereof are shown in Table below and FIGS. 4A to 4E.

[2] = Pharmacokinetic (PK) test; format: in vivo, male ICR mice; conditions: for F, Mean: Oral 20 mg/kg vs intravenous 5 mg/kg, calculated using AUClast; for CL, Mean / Vd / AUC(0-inf) / AUC(0-t) / clearance / MRT inf / half-life / Cmax / Tmax: mice, n=3; for Vd / AUC(0-inf) / AUC(0-t) / clearance / MRT inf / half-life / Cmax / Tmax: male, ICR, mouse, plasma; for Vd: iv; for AUC(0-inf): read-out: AUCinf, Mean; for AUC(0-t): read-out: AUClast, Mean; for clearance: read-out: CL, Mean (converted); for MRT inf: read-out: MRTinf, Mean; for half-life: read-out: t1/2, Mean (converted)
Protocol: Pharmacokinetic (PK) parameters of the Example compounds according to the present invention were determined using male ICR mice as follows (n=3).
Pharmacokinetic (PK) parameters were measured by non-compartmental analysis of plasma concentration-time curves using Kinetica™ 4.4.1 (Thermo Fisher Scientific, USA). Results thereof are shown in Table below and FIGS. 5A to 5C. In Table below, “F” parameter was calculated using AUClast, “N/A” indicates the phrase not applicable, and “NC” indicates the phrase not calculated.

[3] = system: HeLa CCL2 tumor; test: Anticancer effect test in human cervical cancer cell (HeLa CCL2) transplantation model; format: in vivo, BALB/C female nude mouse; conditions: 25 mg/kg intraperitoneally, p<0.001; for tumor growth inhibition: 0-28 days, Day 28, tumor size; for reduction in tumor weight compared with solvent control: excised tumor
Protocol: After thawing the human […] cancer cell line HeLa CCL2 that was stored frozen in liquid nitrogen, cell culture was performed. The cells were cultured for an appropriate period in a CO2 incubator (Forma, USA) at a temperature of 37° C. and a CO2 concentration of 5%.
On the last day of culture, all cancer cells were collected and counted, and the cell concentration was adjusted to 1×10^7 cells/mL using serum free media. The cell culture solution as adjusted above was injected subcutaneously into the axillary region between the shoulder blade and the chest wall in an amount of 0.3 mL (3×10^6 cells/mouse) per BALB/C female nude mouse (5 weeks old, Nara Biotech).
Immediately prior to administration, the compounds were dissolved in a mixture of DMAC (dimethylacetamide) 20%+Tween80 5%+20% HPbCD (2-hydroxypropyl-β-cyclodextrin) 75% at an appropriate concentration and used. The prepared substances were repeatedly administered intraperitoneally in an amount of 0.2 mL (10 mL/kg) per 20 g of a mouse according to the following administration schedule. • carrier, the compound of Example 4, the compound of Example 8, and the compound of Example 15 (25 mg/kg), 0-28 days 4.3. Confirmation of Change in Tumor Size
After cancer cell transplantation, the tumor size of each animal subject was measured a total of 11 times in 3 directions using a vernier caliper from when the mean tumor size reached 57.0 mm^3 until Day 28, and calculated by the formula of length×width×height/2.
In order to test the degree of toxicity upon repeated intraperitoneal administration of the Example compound to HeLa CCL2 cancer cell transplantation nude mice, general symptoms and body weight changes of the animal subjects were observed during the administration period.
On Day 28 after drug administration, blood was collected from the mouse ophthalmic veins in 2 hours post the last administration, and the mice were killed using CO2 gas. Images of the mice were taken, and the tumor was separated and weighed on an electronic scale. After taking the images, each tumor was divided in half and fixed in liquid nitrogen and formalin, respectively. On […] after drug administration, the HeLa CCL2 tumor was excised and weighed.

[4] = Stability test in plasma; format: in vitro ADME; conditions: Rat plasma, 37° C.; for Residue % (180 minutes elapsed), Mean: 5 mM
Protocol: (§2) In order to test the stability (in vivo) of the Example compounds according to the present invention, the compounds of Examples 2, 3, 4, 8 and 15 were administered intravenously, and plasma concentrations over time were observed. In addition, procaine was used as a positive control. Plasma stability was measured three times by administering the test compound at a concentration of 5 mM to human, rat, or mouse plasma (90 μL) at 37° C. Results thereof are shown in Table below and FIGS. 3A to 3E.

[5] = system: HeLa cells; test: Anti-proliferative activity test in HeLa cell line (MTT); format: cell-based; conditions: Homo sapiens, 48 h, grown for 2 days, mean of 2
Protocol: HeLa cells (American Type Culture Collection: ATCC, USA), a human cervical cancer cell line, were seeded in a 96-well plate at 3×10^3 cells/well, and the cells were then treated with compounds of Examples or Comparative Example according to the present invention and grown for 2 days. Then, MTT (3-(4,5-dimethylthiazol-2-yl)-2,5-diphenyltetrazolium bromide) reagent was added at 10 μL/well. After 2 hours, absorbance was measured at “OD 450” and statistical values were obtained using Prism™6 program. The data shown in Table below are mean values of results obtained by repeating the analysis twice.

[6] = Stability in buffer (line of the metabolic stability test); format: in vitro ADME
Protocol: as §1

[7] = Stability test in plasma; format: in vitro ADME; set-up: Residue % (180 minutes elapsed), Mean: dose or concentration left out as unconfirmed; conditions: 37° C.
Protocol: as §2, with “of 5 mM” left out

[8] = Solubility test in administration solvent; format: physicochemical; conditions: 2.0 mg/mL, Solvent A 20%
Protocol: The test substances were accurately weighed and placed in a glass vial. Then, solvent A was added in an amount corresponding to 20% of the desired final solution volume, and the mixture was completely dissolved by treatment with a vortexer and sonication. Next, solvent B in an amount corresponding to 10% or 20% of the final solution volume was added and mixed well. […] Finally, the mixture was subjected to sonication for 30 seconds. The mixed solution was prepared and used immediately before administration in the experiment. • Solvent A: Dimethylacetamide produced by SigmaAldrich • Solvent B: Cremophor EL produced by SigmaAldrich • Solvent C: 20% HPbCD ((2-Hydroxypropyl)-β-cyclodextrin produced by SigmaAldrich) in deionized water

[9] = 5 mg/kg, Intravenous administration, 5 mg/kg, read-out: Vss, Mean
[10] = 5 mg/kg, Intravenous administration, 5 mg/kg, read-out: Vz, Mean
[11] = Intravenous administration, 5 mg/kg

Row | Compound | Residue (%) after culturing for 30 min ([1]; Human, +NADPH) [%] | Residue (%) after culturing for 30 min ([1]; Human, −NADPH) [%] | Residue (%) after culturing for 30 min ([1]; Mouse, +NADPH) [%] | Residue (%) after culturing for 30 min ([1]; Mouse, −NADPH) [%] | Residue (%) after culturing for 30 min ([1]; Rat, +NADPH) [%] | Residue (%) after culturing for 30 min ([1]; Rat, −NADPH) [%] | F, Mean [2] [%] | CL, Mean ([2]; Oral administration, 20 mg/kg) [mL/min/kg] | Vd [2, 9] [L/kg] | Vd [2, 10] [L/kg] | AUC(0-inf) [2, 11] [ng·h/mL] | AUC(0-t) [2, 11] [ng·h/mL] | clearance [2, 11] [mL/min/kg] | MRT inf [2, 11] [min] | half-life [2, 11] [min] | Cmax ([2]; Oral administration, 20 mg/kg) [ng/mL] | Tmax ([2]; Oral administration, 20 mg/kg) [min] | AUC(0-inf) ([2]; Oral administration, 20 mg/kg) [ng·h/mL] | AUC(0-t) ([2]; Oral administration, 20 mg/kg) [ng·h/mL] | MRT inf ([2]; Oral administration, 20 mg/kg) [min] | also measured
1 | CCOCCn1c(Cl)c(/C=N/NC(=O)c2cc3cc(C)ccc3o2)c2cc(OC)ccc21 [Example 8, (E)-N′-[(2-chloro-1-(2-ethoxyethyl)-5-methoxy-1H-indol-3-yl]methylene}-5-methylbenzofuran-2-carbohydrazide] | 24.11 ± 0.46 | 99.18 ± 1.92 | 11.41 ± 2.47 | 89.93 ± 6.72 | 4.55 ± 0.94 | 85.58 ± 3.34 | 1.0 | 3265.3 | 0.5 | 0.85 | 2390 | 2380 | 35 | 14.4 | 16.8 | 93.9 | 34.8 | 103 | 96.3 | 54 | half-life ([2]; Oral administration, 20 mg/kg): 24 min; tumor growth inhibition [3]: 38.35%; reduction in tumor weight compared with solvent control [3]: 40.5%; half-life at 5 mM [4]: > 180 min; Residue % (180 minutes elapsed), Mean [4]: 49.25%; IC50 [5]: 82 nM; Residue (%) after culturing for 30 min [6]: 98.98 ± 2.07%; Residue % (180 minutes elapsed), Mean ([7]; Human plasma): 26.05%; half-life at 5 mM ([7]; Human plasma): > 180 min; Residue % (180 minutes elapsed), Mean ([7]; Mouse plasma): 74.16%; half-life at 5 mM ([7]; Mouse plasma): > 180 min; Solubility evaluation result ([8]; Solvent B 20%, Solvent C 60% (dimethylacetamide/Cremophor EL/20% HPbCD)): Soluble
2 | CCOCCn1c(Cl)c(/C=N/NC(=O)c2cc3cc(C)ccc3o2)c2ccccc21 [Example 4, (E)-N′-[(2-chloro-1-(2-ethoxyethyl)-1H-indol-3-yl]methylene}-5-methylbenzofuran-2-carbohydrazide] | 15.76 ± 0.89 | 77.60 ± 1.39 | 5.48 ± 0.04 | 47.95 ± 2.93 | 3.23 ± 0.55 | 69.63 ± 1.94 | 4.8 | 1152 | 0.98 | 1.88 | 1500 | 1480 | 55.7 | 17.4 | 23.4 | 431 | 15 | 295 | 285 | 42 | half-life ([2]; Oral administration, 20 mg/kg): 24 min; tumor growth inhibition [3]: 56.71%; reduction in tumor weight compared with solvent control [3]: 57.1%; half-life at 5 mM [4]: > 180 min; Residue % (180 minutes elapsed), Mean [4]: 67.11%; IC50 [5]: 180 nM; Residue (%) after culturing for 30 min [6]: 100.93 ± 11.79%; Residue % (180 minutes elapsed), Mean ([7]; Human plasma): 49.41%; half-life at 5 mM ([7]; Human plasma): > 180 min; Residue % (180 minutes elapsed), Mean ([7]; Mouse plasma): 60.44%; half-life at 5 mM ([7]; Mouse plasma): > 180 min; Solubility evaluation result ([8]; Solvent B 10%, Solvent C 70% (dimethylacetamide/Cremophor EL/20% HPbCD)): Soluble
